Test results as given in article PMC9927415, “Tyrosine Kinase Inhibitors Display Potent Activity against Cryptosporidium parvum” (Microbiology Spectrum, 2022).

Key:
[1] = biological target: T1, RET (Homo sapiens, UniProt P07949); test: KINOMEscan competitive binding; conditions: n=1, read-out: Percent inhibition, RET
T1 construct: purchased DiscoverX (KINOMEscan)

[2] = biological target: T2, RAF1 (Homo sapiens, UniProt P04049); test: KINOMEscan competitive binding; conditions: n=1, read-out: Percent inhibition, RAF1
T2 construct: purchased DiscoverX (KINOMEscan)

[3] = biological target: T3, RPS6KA6(Kin.Dom.1) (Homo sapiens, UniProt Q9UK32); test: KINOMEscan competitive binding; conditions: n=1, read-out: Percent inhibition, RPS6KA6(Kin.Dom.1)
T3 construct: RPS6KA6(Kin.Dom.1); purchased DiscoverX (KINOMEscan)

[4] = biological target: T4, PAK7/PAK5 (Homo sapiens, UniProt Q9P286); test: KINOMEscan competitive binding; conditions: n=1, read-out: Percent inhibition, PAK7/PAK5
T4 construct: purchased DiscoverX (KINOMEscan)

[5] = biological target: T5, PRKG1 (Homo sapiens, UniProt Q13976); test: KINOMEscan competitive binding; conditions: n=1, read-out: Percent inhibition, PRKG1
T5 construct: purchased DiscoverX (KINOMEscan)
T5 sequence (Q13976 1-671): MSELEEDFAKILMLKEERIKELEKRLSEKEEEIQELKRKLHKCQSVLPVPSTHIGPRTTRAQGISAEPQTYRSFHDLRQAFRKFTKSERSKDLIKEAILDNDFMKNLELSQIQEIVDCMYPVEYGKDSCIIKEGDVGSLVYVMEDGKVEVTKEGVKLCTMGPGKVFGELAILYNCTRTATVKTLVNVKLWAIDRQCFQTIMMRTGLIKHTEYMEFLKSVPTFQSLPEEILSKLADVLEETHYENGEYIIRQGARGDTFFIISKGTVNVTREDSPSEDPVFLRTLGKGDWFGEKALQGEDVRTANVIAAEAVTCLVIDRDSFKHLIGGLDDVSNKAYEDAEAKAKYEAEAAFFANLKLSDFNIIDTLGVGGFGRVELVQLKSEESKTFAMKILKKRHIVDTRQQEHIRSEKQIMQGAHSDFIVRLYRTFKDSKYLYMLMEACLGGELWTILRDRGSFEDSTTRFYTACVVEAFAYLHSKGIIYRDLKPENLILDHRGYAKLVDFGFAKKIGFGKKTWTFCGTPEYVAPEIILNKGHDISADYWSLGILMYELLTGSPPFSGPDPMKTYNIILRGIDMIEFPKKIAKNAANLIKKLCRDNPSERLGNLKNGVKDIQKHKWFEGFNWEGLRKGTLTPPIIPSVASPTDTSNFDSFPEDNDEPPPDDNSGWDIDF

[6] = biological target: T6, TYRO3 (Homo sapiens, UniProt Q06418); test: KINOMEscan competitive binding; conditions: n=1, read-out: Percent inhibition, TYRO3
T6 construct: purchased DiscoverX (KINOMEscan)
T6 sequence (Q06418 41-890): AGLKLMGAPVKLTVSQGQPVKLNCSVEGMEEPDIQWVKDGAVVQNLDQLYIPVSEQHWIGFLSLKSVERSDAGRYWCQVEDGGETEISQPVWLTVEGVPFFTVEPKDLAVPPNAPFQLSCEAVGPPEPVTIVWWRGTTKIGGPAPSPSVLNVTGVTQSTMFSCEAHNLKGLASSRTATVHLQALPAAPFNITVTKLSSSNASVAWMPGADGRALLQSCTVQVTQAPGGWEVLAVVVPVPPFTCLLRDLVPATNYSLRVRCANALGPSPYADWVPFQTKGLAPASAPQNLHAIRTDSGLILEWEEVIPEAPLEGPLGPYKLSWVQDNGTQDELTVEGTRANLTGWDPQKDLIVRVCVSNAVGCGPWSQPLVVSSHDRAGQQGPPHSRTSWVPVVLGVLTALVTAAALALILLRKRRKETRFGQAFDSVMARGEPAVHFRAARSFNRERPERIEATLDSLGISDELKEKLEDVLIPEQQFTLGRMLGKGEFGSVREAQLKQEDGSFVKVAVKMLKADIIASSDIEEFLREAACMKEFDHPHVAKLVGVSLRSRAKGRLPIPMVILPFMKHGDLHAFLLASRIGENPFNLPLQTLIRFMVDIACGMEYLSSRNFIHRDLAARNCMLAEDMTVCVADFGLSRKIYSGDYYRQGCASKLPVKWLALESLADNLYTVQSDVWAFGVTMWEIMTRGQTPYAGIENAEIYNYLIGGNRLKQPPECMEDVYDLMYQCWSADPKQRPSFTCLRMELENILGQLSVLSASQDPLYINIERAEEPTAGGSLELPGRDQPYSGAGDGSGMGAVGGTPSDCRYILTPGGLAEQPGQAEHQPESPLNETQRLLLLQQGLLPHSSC

[7] = biological target: T7, PTK2 (Homo sapiens, UniProt Q05397); test: KINOMEscan competitive binding; conditions: n=1, read-out: Percent inhibition, PTK2
T7 construct: purchased DiscoverX (KINOMEscan)

[8] = test system: Cryptosporidium parvum; test: In vitro C. parvum growth inhibition assay (Nluc reporter strain in HCT-8 cells); assay type: cell-based; conditions: 48 h; for EC50: mean of two independent experiments, dose response 10 nM to 10 μM, read-out: Cp EC50; for inhibition at 10 µM: primary screen, 10 μM compound, three technical replicates, read-out: Mean percent inhibition of C. parvum growth
Description: Host intestinal epithelial adenocarcinoma (HCT-8) cells were seeded into 96-well plates and grown to 70% confluence in RPMI medium supplemented with L-glutamine, 10% fetal bovine serum (FBS), 0.1 U/mL penicillin, 0.1 μg/mL streptomycin, 0.25 μg/mL amphotericin B and 1 mM sodium pyruvate. The host cell medium was aspirated and replaced with Cryptosporidium infection media (RPMI containing 2% FBS, 0.1 U/mL penicillin, 0.1 μg/mL streptomycin and 0.25 μg/mL amphotericin B) media prior to infection. The HCT-8 cells were infected with bleached and washed Nluc expressing C. parvum oocysts (2,000 oocysts per well) to which 10 μM compounds were added and plates were incubated for 48 h at 37°C, 5% CO2 and luminescence was measured using the protocol described previously ([14], [58]). […] Negative (no drug) and positive control (10 μM nitazoxanide) wells (three replicates each) were also set-up in the same plate. After the incubation, medium was removed and 100 μL of NanoGlo lysis buffer (Promega) was added to the wells followed by incubation for 15 min at 37°C, 5% CO2. The lysate was suspended by pipetting and 100 μL of NanoGlo lysis buffer containing 1:50 of NanoGlo substrate (Promega) was added to each well. […] For the dose response assay, compounds were tested in triplicate wells in two independent experiments and percent luminescence of no drug was calculated.
EC50 values were calculated using a nonlinear regression (curve fit of log-dose versus response) in GraphPad Prism version 8.

[9] = biological target: T8, RPS6KA3(Kin.Dom.1) (Homo sapiens, UniProt P51812); test: KINOMEscan competitive binding; conditions: n=1, read-out: Percent inhibition, RPS6KA3(Kin.Dom.1)
T8 construct: RPS6KA3(Kin.Dom.1); purchased DiscoverX (KINOMEscan)
T8 sequence (P51812 1-397 limits assumed): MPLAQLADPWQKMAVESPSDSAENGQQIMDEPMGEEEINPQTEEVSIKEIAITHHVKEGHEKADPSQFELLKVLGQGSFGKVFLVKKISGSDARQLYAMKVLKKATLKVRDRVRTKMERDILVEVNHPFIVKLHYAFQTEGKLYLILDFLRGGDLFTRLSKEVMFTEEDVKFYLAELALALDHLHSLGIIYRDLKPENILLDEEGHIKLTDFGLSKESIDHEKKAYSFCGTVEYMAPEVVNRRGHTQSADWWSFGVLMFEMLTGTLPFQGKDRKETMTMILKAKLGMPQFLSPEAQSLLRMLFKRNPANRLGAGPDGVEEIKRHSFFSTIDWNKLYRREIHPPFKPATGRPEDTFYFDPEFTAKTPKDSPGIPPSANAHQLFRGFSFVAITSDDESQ

T1 sequence (P07949 29-1114): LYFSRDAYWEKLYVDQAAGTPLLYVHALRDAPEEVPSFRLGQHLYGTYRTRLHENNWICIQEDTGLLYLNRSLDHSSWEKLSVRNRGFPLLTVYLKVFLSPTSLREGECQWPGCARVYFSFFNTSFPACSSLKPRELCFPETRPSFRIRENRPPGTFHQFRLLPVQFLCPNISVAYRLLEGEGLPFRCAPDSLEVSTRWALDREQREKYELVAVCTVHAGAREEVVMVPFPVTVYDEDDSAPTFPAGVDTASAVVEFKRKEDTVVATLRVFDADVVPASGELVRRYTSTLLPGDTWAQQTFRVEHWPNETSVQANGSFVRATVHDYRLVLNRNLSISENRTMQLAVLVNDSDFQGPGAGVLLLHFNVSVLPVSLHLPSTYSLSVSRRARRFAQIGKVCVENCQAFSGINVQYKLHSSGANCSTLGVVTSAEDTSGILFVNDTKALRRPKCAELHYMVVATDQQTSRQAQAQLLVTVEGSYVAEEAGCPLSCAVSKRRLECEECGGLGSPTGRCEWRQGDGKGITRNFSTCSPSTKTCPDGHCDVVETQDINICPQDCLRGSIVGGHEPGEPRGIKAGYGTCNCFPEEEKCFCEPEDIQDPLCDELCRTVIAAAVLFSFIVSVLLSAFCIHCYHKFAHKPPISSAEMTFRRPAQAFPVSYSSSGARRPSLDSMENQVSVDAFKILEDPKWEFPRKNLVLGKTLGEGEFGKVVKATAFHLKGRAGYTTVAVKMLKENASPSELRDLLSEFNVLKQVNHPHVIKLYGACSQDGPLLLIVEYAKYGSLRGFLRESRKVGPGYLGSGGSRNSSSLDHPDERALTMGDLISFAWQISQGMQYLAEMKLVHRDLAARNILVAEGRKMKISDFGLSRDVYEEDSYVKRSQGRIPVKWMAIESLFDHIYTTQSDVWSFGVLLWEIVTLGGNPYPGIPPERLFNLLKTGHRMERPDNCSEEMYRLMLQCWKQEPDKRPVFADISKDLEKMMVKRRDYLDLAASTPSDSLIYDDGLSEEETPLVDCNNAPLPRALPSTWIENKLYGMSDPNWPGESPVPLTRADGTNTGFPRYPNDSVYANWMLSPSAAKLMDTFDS
T7 sequence (Q05397 whole entry): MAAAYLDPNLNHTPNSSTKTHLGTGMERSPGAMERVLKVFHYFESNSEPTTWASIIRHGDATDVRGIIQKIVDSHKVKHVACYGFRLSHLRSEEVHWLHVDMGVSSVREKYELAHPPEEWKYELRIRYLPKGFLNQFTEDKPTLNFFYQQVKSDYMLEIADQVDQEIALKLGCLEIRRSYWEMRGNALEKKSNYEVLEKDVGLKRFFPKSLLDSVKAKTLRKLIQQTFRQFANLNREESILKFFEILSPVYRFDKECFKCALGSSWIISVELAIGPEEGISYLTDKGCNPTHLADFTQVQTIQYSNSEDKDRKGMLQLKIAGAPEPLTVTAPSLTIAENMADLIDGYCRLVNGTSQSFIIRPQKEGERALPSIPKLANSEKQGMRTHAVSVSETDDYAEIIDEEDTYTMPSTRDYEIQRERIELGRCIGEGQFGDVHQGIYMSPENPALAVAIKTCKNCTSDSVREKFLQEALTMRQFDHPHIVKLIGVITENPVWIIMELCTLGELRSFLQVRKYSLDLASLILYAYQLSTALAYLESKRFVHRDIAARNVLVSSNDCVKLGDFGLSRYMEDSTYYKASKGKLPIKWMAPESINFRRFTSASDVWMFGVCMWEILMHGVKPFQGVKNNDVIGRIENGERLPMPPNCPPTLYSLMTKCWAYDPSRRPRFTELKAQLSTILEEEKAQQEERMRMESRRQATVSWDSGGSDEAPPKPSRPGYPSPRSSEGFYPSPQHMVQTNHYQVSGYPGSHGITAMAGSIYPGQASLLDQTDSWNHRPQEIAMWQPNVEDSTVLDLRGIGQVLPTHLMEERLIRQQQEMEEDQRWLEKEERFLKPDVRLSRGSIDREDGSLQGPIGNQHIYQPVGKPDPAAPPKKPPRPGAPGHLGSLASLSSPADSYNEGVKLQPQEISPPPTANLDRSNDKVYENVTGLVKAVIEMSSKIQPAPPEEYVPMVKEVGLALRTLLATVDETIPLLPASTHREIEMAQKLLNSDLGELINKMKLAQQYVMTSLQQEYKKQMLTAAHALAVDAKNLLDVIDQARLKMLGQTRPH
T4 sequence (Q9P286 whole entry): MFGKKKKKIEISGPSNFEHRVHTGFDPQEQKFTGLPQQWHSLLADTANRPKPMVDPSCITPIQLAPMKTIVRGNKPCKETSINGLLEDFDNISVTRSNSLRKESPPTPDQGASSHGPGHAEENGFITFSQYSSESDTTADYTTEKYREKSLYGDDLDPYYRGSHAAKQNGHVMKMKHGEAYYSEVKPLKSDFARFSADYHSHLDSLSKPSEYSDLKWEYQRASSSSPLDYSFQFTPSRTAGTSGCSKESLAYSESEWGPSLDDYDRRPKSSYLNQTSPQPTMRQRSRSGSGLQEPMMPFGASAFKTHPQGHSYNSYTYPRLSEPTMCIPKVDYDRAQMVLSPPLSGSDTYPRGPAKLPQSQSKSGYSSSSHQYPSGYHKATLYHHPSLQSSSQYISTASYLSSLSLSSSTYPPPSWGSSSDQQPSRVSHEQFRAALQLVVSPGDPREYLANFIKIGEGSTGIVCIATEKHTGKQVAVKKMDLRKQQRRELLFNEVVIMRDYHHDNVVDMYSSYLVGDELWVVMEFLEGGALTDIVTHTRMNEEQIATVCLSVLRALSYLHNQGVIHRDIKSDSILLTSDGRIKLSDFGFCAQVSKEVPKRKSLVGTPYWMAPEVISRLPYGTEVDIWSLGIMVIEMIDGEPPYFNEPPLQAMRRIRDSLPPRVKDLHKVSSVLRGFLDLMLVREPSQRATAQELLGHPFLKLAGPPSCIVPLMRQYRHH
T2 sequence (P04049 whole entry): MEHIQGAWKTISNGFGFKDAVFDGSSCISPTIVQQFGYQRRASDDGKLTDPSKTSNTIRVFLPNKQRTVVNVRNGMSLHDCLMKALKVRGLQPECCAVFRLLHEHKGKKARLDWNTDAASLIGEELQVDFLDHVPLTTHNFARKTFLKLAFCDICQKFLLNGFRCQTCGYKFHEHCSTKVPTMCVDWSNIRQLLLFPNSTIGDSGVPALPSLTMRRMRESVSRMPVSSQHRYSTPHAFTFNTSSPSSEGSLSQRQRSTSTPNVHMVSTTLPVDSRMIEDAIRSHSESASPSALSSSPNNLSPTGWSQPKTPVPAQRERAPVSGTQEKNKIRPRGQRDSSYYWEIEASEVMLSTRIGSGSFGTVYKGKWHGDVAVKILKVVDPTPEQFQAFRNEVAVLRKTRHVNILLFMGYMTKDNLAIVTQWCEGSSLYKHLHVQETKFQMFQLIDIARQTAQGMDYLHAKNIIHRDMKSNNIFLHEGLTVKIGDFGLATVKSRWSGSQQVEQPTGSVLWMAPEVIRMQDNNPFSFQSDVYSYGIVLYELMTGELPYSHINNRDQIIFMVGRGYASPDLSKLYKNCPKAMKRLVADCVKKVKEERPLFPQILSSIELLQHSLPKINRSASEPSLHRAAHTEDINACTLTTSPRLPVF
T3 sequence (Q9UK32 1-400 limits assumed): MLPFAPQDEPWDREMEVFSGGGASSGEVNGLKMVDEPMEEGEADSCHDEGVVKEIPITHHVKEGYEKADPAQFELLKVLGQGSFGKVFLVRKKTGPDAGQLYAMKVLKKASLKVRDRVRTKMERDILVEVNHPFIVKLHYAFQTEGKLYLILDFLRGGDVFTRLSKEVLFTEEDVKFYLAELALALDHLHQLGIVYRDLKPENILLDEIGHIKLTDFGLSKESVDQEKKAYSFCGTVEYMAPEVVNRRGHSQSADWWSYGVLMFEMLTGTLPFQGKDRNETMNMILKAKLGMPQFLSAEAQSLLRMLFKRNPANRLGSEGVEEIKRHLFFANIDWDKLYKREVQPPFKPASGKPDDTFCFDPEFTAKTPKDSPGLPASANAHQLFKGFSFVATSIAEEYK

Compound CN1CCN(c2ccc(Nc3nccc(-c4cnn5ncccc45)n3)cc2C#N)CC1 [Compound 1] has an inhibition at 10 µM [1] of 89.8%, an inhibition at 10 µM [2] of 0% and an inhibition at 10 µM [3] of 0%. For the same compound, the inhibition at 10 µM [4] was 99.2%, the inhibition at 10 µM [5] was 0% and the inhibition at 10 µM [6] was 70.2%. The inhibition at 10 µM [7] was 87.2%, the EC50 [8] was 40 nM and the inhibition at 10 µM [8] was 95.6%. It also gave an inhibition at 10 µM [9] of 86%.

COc1ccc(Nc2nccc(-c3cnn4ncccc34)n2)cc1 [Compound 2] gave an inhibition at 10 µM [1] of 0%, an inhibition at 10 µM [2] of 0% and an inhibition at 10 µM [3] of 0%. It also gave an inhibition at 10 µM [4] of 72.8%, an inhibition at 10 µM [5] of 0% and an inhibition at 10 µM [6] of 0%. For the same compound, the inhibition at 10 µM [7] was 99.3%, the EC50 [8] was 130 nM and the inhibition at 10 µM [8] was 92.9%. For the same compound, the inhibition at 10 µM [9] was 0%.

For Cc1ccc(O)cc1Nc1ccnc(Nc2cccc(C(N)=O)c2)n1 [Compound 3], the inhibition at 10 µM [1] was 100%, the inhibition at 10 µM [2] was 74.3% and the inhibition at 10 µM [3] was 0%. It also gave an inhibition at 10 µM [4] of 67.6%, an inhibition at 10 µM [5] of 0% and an inhibition at 10 µM [6] of 100%. It also gave an inhibition at 10 µM [7] of 0%, an EC50 [8] of 610 nM and an inhibition at 10 µM [8] of 94.4%. The inhibition at 10 µM [9] was 0%.

Cc1ccc(O)cc1N(C)c1ccnc(Nc2cccc(S(N)(=O)=O)c2)n1 [Compound 4] showed an inhibition at 10 µM [1] of 100%, an inhibition at 10 µM [2] of 94.2% and an inhibition at 10 µM [3] of 0%. The inhibition at 10 µM [4] was 98.5%, the inhibition at 10 µM [5] was 0% and the inhibition at 10 µM [6] was 100%. For the same compound, the inhibition at 10 µM [7] was 93.4%, the EC50 [8] was 80 nM and the inhibition at 10 µM [8] was 95.5%. For the same compound, the inhibition at 10 µM [9] was 0%.

Fc1cccc(COc2ccc(Nc3ncnc4c3CN(CCN3CCOCC3)CC4)cc2Cl)c1 [Compound 6] gave an inhibition at 10 µM [1] of 0%, an inhibition at 10 µM [2] of 0% and an inhibition at 10 µM [3] of 0%. For the same compound, the inhibition at 10 µM [4] was 0%, the inhibition at 10 µM [5] was 0% and the inhibition at 10 µM [6] was 0%. For the same compound, the inhibition at 10 µM [7] was 0%, the EC50 [8] was 240 nM and the inhibition at 10 µM [8] was 93.7%. It also gave an inhibition at 10 µM [9] of 0%.

COc1cc(Nc2nccc(-c3sc(N)nc3-c3cccc(NC(=O)c4c(F)cccc4F)c3)n2)cc(OC)c1OC [Compound 7] was tested, and the inhibition at 10 µM [1] was 100%, the inhibition at 10 µM [2] was 100% and the inhibition at 10 µM [3] was 83.2%. For the same compound, the inhibition at 10 µM [4] was 89.4%, the inhibition at 10 µM [5] was 0% and the inhibition at 10 µM [6] was 100%. The inhibition at 10 µM [7] was 97%, the EC50 [8] was 180 nM and the inhibition at 10 µM [8] was 90.9%. It also gave an inhibition at 10 µM [9] of 99.8%.

C[C@@H](Oc1cc(-c2cnc3ccccn23)sc1C(N)=O)c1ccccc1Cl [Compound 8] was tested, and the inhibition at 10 µM [1] was 0%, the inhibition at 10 µM [2] was 0% and the inhibition at 10 µM [3] was 0%. It also gave an inhibition at 10 µM [4] of 0%, an inhibition at 10 µM [5] of 0% and an inhibition at 10 µM [6] of 0%. For the same compound, the inhibition at 10 µM [7] was 0%, the EC50 [8] was 390 nM and the inhibition at 10 µM [8] was 95%. The inhibition at 10 µM [9] was 0%.

For c1ccc(COc2cccc(-c3ccnc4[nH]ccc34)c2)cc1 [Compound 9], the inhibition at 10 µM [1] was 0%, the inhibition at 10 µM [2] was 0% and the inhibition at 10 µM [3] was 0%. The inhibition at 10 µM [4] was 0%, the inhibition at 10 µM [5] was 0% and the inhibition at 10 µM [6] was 0%. It also gave an inhibition at 10 µM [7] of 0%, an EC50 [8] of 310 nM and an inhibition at 10 µM [8] of 95.2%. The inhibition at 10 µM [9] was 0%.

Clc1ccc(Nc2ncc(-c3ccccc3)s2)cc1 [Compound 10] was tested, and the inhibition at 10 µM [1] was 0%, the inhibition at 10 µM [2] was 0% and the inhibition at 10 µM [3] was 0%. The inhibition at 10 µM [4] was 0%, the inhibition at 10 µM [5] was 0% and the inhibition at 10 µM [6] was 0%. For the same compound, the inhibition at 10 µM [7] was 0%, the EC50 [8] was 420 nM and the inhibition at 10 µM [8] was 95.1%. The inhibition at 10 µM [9] was 0%.

Compound Nc1ncc2c(-c3ccncc3)c[nH]c2n1 [Compound 11] has an inhibition at 10 µM [1] of 0%, an inhibition at 10 µM [2] of 0% and an inhibition at 10 µM [3] of 0%. It also gave an inhibition at 10 µM [4] of 77.1%, an inhibition at 10 µM [5] of 0% and an inhibition at 10 µM [6] of 0%. For the same compound, the inhibition at 10 µM [7] was 0%, the EC50 [8] was 60 nM and the inhibition at 10 µM [8] was 90.8%. The inhibition at 10 µM [9] was 0%.
